Data from PMC8187357 (Communications Biology, 2021).
“And” between values parts separate entries of the source, which are not always exact repeats. Identical values can stand only once.

What was measured:
[1] = test system: CT26 colon carcinoma model; assay: Immune pharmacodynamics in CT26 colon carcinoma model; format: in vivo, mouse; conditions: CT26 tumor infiltrating lymphocytes, CA-170 10 mg/kg daily, PD-1 antibody J43 100 µg/animal, 5 days, individual animals
Text: For the measurement of immune pharmacodynamics, CT26 cells were subcutaneously implanted into 5 to 7 weeks old male Balb/c mice by injecting 1 million CT26 tumor cells/ animal. When tumor volume reached ~200mm^3, animals were randomized and allocated to three treatment groups (n = 5). Similarly, for the measurement of immune pharmacodynamics in MC38 model, MC38 cell lines were subcutaneously implanted into 5 to 7 weeks old male C57B6 mice by injecting 0.5 million cells/animal. Dosing was initiated when tumor volume reached ~100 mm^3. In both tumor models, mice were orally treated daily with vehicle and CA-170 (10 mg/kg) for 5 days. As an additional control, anti-PD1 antibody (100 μg/animal, clone J43) was dosed intraperitoneally on day 1. After 24 h of last dosing, animals were sacrificed, and blood samples and tumor tissues were collected from each animal and processed for PD evaluation using antibodies shown in Supplementary Table 1 and specific methods reported in publication[51] and analyzed by FACS. The gating strategy is detailed in Supplementary Fig. 3.

GABA = assay: CEREP 80 panel binding: GABA; conditions: 10 µM
Method: (§1) CEREP 80 panel assay was carried out by Eurofins Cerep Panlabs facility at France. A series of binding assays was carried out to understand the off-target toxicity of CA-170. CA-170 was tested at 10 μM test concentration in duplicates. Compound binding was calculated as a % inhibition of the binding of a radioactively labeled ligand specific for each target. In each experiment the respective reference compound was tested concurrently with CA-170, and the data were compared with historical values determined at Eurofins. The experiment was accepted in accordance with Eurofins validation standard operating procedure. The results are expressed as a percent of control specific binding; (measured specific binding / control specific binding) × 100 and as a percent inhibition of control specific binding; 100−(measured specific binding / control specific binding) × 100 obtained in the presence of CA-170. The IC50 values (concentration causing a half-maximal inhibition of control specific binding) and Hill coefficients (nH) were determined by non-linear regression analysis of the competition curves generated with mean replicate values using Hill equation curve fitting.

Neurotensin NTS1 = target: T1, Neurotensin NTS1 (Homo sapiens, UniProt P30989); assay: CEREP 80 panel binding: Neurotensin; conditions: read-out: % Inhibition of Control Specific Binding
T1 construct: Eurofins Cerep Panlabs (contract assay)
T1 sequence (P30989 whole entry): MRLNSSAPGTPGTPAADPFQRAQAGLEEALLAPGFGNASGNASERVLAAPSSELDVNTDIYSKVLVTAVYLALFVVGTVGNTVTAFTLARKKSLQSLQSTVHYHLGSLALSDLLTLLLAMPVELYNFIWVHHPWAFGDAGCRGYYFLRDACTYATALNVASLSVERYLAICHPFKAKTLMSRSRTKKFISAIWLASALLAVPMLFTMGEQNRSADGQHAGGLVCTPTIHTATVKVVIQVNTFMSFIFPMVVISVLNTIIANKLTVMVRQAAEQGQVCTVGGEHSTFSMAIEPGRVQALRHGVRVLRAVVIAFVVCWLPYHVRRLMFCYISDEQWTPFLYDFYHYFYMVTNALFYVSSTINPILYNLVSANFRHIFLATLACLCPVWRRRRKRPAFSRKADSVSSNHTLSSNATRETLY
Method: as §1

Galanin GAL1, GAL2 = assay: CEREP 80 panel binding: Galanin; conditions: 10 µM
Method: as §1

human PBMCs = assay: Cytokine induction in human PBMCs; format: cell-based; conditions: for IFNγ: 48 h, normal density, replicates
Method: To determine the potential for any unforeseen T-cell agonist activity in humans, a study was conducted where human PBMCs from healthy donors were pre-cultured either at normal density (2 × 10^5 cells/well) or at high density (1 × 10^7 cells/mL) in vitro to increase cell–cell contacts and immune scanning as described[24] and then treated with CA-170 (10 nM to 1000 nM) IL-2, TNF-α and IFN-γ cytokine release was measured in the culture supernatants at 24 and 48 h. Human PBMCs stimulated with anti-CD3 alone or anti-CD3 + anti-CD28 antibodies served as positive controls for cytokine release in this assay.

C[C@@H](O)[C@H](NC(=O)N[C@@H](CC(N)=O)c1nc([C@@H](N)CO)no1)C(=O)O [CA-170]
Ki-67+ cells % Live, CD45+, CD3+, CD4+ T cells [1]: 57.1% and 63.22% and 64.66% and 82.55% and 45.02%
Ki-67+ cells % Live, CD45+, CD3+, CD8+ T cells [1]: 71.24% and 82.88% and 69.7% and 88.94% and 68.84%
OX-40+ cells % Live, CD45+, CD3+, CD4+ T cells [1]: 56.66% and 56.78% and 46.34% and 42.73% and 29.6%
OX-40+ cells % Live, CD45+, CD3+, CD8+ T cells [1]: 87.3% and 96.29% and 95.65% and 95.1% and 35.3%
% Inhibition of Control Specific Binding (GABA): 11%
inhibition at 10 µM (Neurotensin NTS1): 7%
% Inhibition of Control Specific Binding (Galanin GAL1, GAL2): ≤ 12%
IFN-γ (human PBMCs; 24 hours, Normal density, 10nM): BLoD
IFN-γ (human PBMCs; 24 hours, Normal density, 50nM): BLoD
IFN-γ (human PBMCs; 24 hours, Normal density, 100nM): BLoD
IFN-γ (human PBMCs; 24 hours, Normal density, 250nM): BLoD
IFN-γ (human PBMCs; 24 hours, Normal density, 500nM): BLoD
IFN-γ (human PBMCs; 24 hours, Normal density, 1000nM): BLoD
IFNγ (human PBMCs; 10 nM): BLOD
IFNγ (human PBMCs; 50 nM): BLOD
IFNγ (human PBMCs; 100 nM): BLOD
IFNγ (human PBMCs; 250 nM): BLOD
IFNγ (human PBMCs; 500 nM): BLOD
IFNγ (human PBMCs; 1000 nM): BLOD
IFN-γ (human PBMCs; human, 24 h, 10 nM): 2.8 ± 1.9 pg/mL
IFN-γ (human PBMCs; human, 24 h, 50 nM): 1.5 ± 1.0 pg/mL
IFN-γ (human PBMCs; human, 24 h, 100 nM): 1.5 ± 0 pg/mL
IFN-γ (human PBMCs; human, 24 h, 250 nM): 4.0 ± 0.7 pg/mL
IFN-γ (human PBMCs; human, 24 h, 500 nM): 6.8 ± 1.5 pg/mL
IFN-γ (human PBMCs; human, 24 h, 1000 nM): 5.8 ± 1.4 pg/mL
cytokine induction (in words) (human PBMCs; normal and high-density culture conditions): did not induce significant levels of cytokines
